Assay results taken from patent US20140094465A1, “Compounds as S-Nitrosoglutathione Reductase Inhibitors” (N30 PHARMACEUTICALS, INC., priority 2011, published 2014).

Target: T1, S-nitrosoglutathione reductase (GSNOR) (Homo sapiens, UniProt P11766)
T1 construct: made in house; host or cells: E. coli
Assay: GSNOR assay (inhibition of GSNOR activity, NADH absorbance at 340 nm)
Assay type: biochemical
Conditions: GSNOR inhibitor activity, Tables 1-6; read-out: IC50 range
Procedure: Various compounds were tested in vitro for their ability to inhibit GSNOR activity.
GSNOR expression and purification is described in Biochemistry 2000, 39, 10720-10729.
Pre-cultures were grown from stabs of a GSNOR glycerol stock in 2XYT media containing 100 ug/ml ampicillin after an overnight incubation at 37° C. […] GSNOR expression was induced with 0.1% arabinose in an overnight incubation at 20° C.
E. coli cell paste was lysed by nitrogen cavitation and the clarified lysate purified by Ni affinity chromatography on an AKTA FPLC (Amersham Pharmacia). The column was eluted in 20 mM Tris pH 8.0/250 mM NaCl with a 0-500 mM imidazole gradient. Eluted GSNOR fractions containing the Smt-GSNOR fusion were digested overnight with Ulp-1 at 4° C. to remove the affinity tag then re-run on the Ni column under the same conditions. GSNOR was recovered in the flowthrough fraction and for crystallography is further purified by Q-Sepharose and Heparin flowthrough chromatography in 20 mM Tris pH 8.0, 1 mM DTT, 10 uM ZnSO4.
GSNOR assay: GSNO and enzyme/NADH Solutions are made up fresh each day. The solutions are filtered and allowed to warm to room temperature. GSNO solution: 100 mM NaPO4 (pH 7.4), 0.480 mM GSNO. 396 μL of GSNO Solution is added to a cuvette followed by 8 μL of test compound in DMSO (or DMSO only for full reaction control) and mixed with the pipette tip. Compounds to be tested are made up at a stock concentration of 10 mM in 100% DMSO. 2 fold serial dilutions are done in 100% DMSO. 8 μL of each dilution are added to an assay so that the final concentration of DMSO in the assay is 1%. The concentrations of compounds tested range from 100 to 0.003 μM. Enzyme/NADH solution: 100 mM NaPO4 (pH 7.4), 0.600 mM NADH, 1.0 μg/mL GSNO Reductase. 396 μL of the Enzyme/NADH solution is added to the cuvette to start the reaction. The cuvette is placed in the Cary 3E UV/Visible Spectrophotometer and the change in 340 nm absorbance/min at 25° C. is recorded for 3 minutes. The assays are done in triplicate for each compound concentration. IC50's for each compound are calculated using the standard curve analysis in the Enzyme Kinetics Module of SigmaPlot.
Final assay conditions: 100 mM NaPO4, pH 7.4, 0.240 mM GSNO, 0.300 mM NADH, 0.5 μg/mL GSNO Reductase, and 1% DMSO. Final volume: 800 μL/cuvette.

T1 sequence (P11766 whole entry): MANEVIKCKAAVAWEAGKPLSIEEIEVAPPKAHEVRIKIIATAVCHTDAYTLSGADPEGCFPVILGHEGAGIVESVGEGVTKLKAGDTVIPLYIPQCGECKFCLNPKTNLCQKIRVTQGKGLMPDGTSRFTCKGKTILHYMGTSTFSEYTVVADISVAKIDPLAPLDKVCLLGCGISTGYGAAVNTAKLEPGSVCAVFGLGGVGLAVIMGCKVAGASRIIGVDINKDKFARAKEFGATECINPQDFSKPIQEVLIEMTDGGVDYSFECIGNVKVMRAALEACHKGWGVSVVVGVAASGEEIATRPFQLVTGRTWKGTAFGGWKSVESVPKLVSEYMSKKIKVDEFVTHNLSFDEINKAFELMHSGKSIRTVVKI

Compound | IC50 [nM]
O=C(O)c1ccc(-c2c(C(F)(F)F)oc3cc(O)ccc3c2=O)cc1F [IV-14] | < 100
O=C(O)c1ccc(-c2c(C(F)(F)F)oc3cc(O)ccc3c2=O)c(Cl)c1 [IV-15] | < 100
CC(F)(F)c1oc2cc(O)ccc2c(=O)c1-c1ccc(C(=O)O)cc1 [IV-16] | < 100
O=C(O)c1ccc(-c2c(C(F)(F)F)oc3cc(O)ccc3c2=O)cc1Cl [IV-18] | < 100
COc1cc(C(=O)O)ccc1-c1c(C(F)(F)F)oc2cc(O)ccc2c1=O [IV-20] | < 100
O=C(O)c1ccc(-c2c(C(F)(F)F)oc3cc(O)ccc3c2=O)s1 [IV-24] | < 100
O=c1c(-c2ccc(-c3nnn[nH]3)cc2)c(C(F)F)oc2cc(O)ccc12 [IV-27] | < 100
Cc1oc2cc(O)ccc2c(=O)c1-c1ccc(-c2nnn[nH]2)cc1 [IV-28] | < 100
CS(=O)(=O)NC(=O)c1ccc(-c2c(C(F)(F)F)oc3cc(O)ccc3c2=O)cc1 [IV-32] | 100 to 1000
O=c1[nH]c(-c2ccc(-c3c(C(F)(F)F)oc4cc(O)ccc4c3=O)cc2)ns1 [IV-33] | < 100
Cc1sc2cc(O)ccc2c(=O)c1-c1ccc(-c2nnn[nH]2)cc1 [IV-34] | < 100
O=C(O)c1csc(-c2c(C(F)(F)F)oc3cc(O)ccc3c2=O)c1 [IV-35] | 100 to 1000
O=c1c(C2CCC(c3nn[nH]n3)CC2)c(C(F)(F)F)oc2cc(O)ccc12 (stereo not drawn) [IV-36] | < 100
O=C(NO)c1ccc(-c2c(C(F)(F)F)oc3cc(O)ccc3c2=O)cc1 [IV-37] | 100 to 1000
O=c1c(-c2ccc(-c3nnn[nH]3)cc2Cl)c(C(F)(F)F)oc2cc(O)ccc12 [IV-39] | < 100
O=c1[nH]c(-c2ccc(-c3c(C(F)(F)F)oc4cc(O)ccc4c3=O)c(Cl)c2)no1 [IV-40] | < 100
O=c1[nH]c(-c2ccc(-c3c(C(F)(F)F)oc4cc(O)ccc4c3=O)c(F)c2)no1 [IV-41] | < 100
O=c1c(-c2ccc(-c3nnn[nH]3)c(Cl)c2)c(C(F)(F)F)oc2cc(O)ccc12 [IV-42] | < 100
Cc1cc(C(=O)O)ccc1-c1c(C(F)(F)F)oc2cc(O)ccc2c1=O [IV-43] | < 100
O=c1c(-c2ccc(-c3nnn[nH]3)cc2)coc2cc(O)ccc12 [IV-44] | < 100
O=c1c(-c2ccc(O)c([N+](=O)[O-])c2)c(C(F)(F)F)oc2cc(O)ccc12 [IV-45, 7-hydroxy-3-(4-hydroxy-3-nitrophenyl)-2-(trifluoromethyl)-4H-chromen-4-one] | < 100
CCOc1cc(-c2c(C(F)(F)F)oc3cc(O)ccc3c2=O)cc([N+](=O)[O-])c1O [IV-46, 3-(3-ethoxy-4-hydroxy-5-nitrophenyl)-7-hydroxy-2-(trifluoromethyl)-4H-chromen-4-one] | < 100
O=C(C[C@H]1CC[C@H](C(=O)O)CC1)c1ccc(O)cc1O [VI-1, (trans)-4-(2-(2,4-dihydroxyphenyl)-2-oxoethyl)cyclohexanecarboxylic acid] | 100 to 1000
O=C(O)c1ccc(CC(=O)c2ccc(O)cc2F)c(F)c1 [VI-2, 3-fluoro-4-(2-(2-fluoro-4-hydroxyphenyl)-2-oxoethyl)benzoic acid] | < 100
O=C(O)c1ccc(CC(=O)c2ccc(O)c(F)c2F)c(F)c1 [VI-3, 4-(2-(2,3-difluoro-4-hydroxyphenyl)-2-oxoethyl)-3-fluorobenzoic acid] | < 100
O=C(O)c1ccc(CC(=O)c2ccc(O)c(F)c2)c(F)c1 [VI-4, 3-fluoro-4-(2-(3-fluoro-4-hydroxyphenyl)-2-oxoethyl)benzoic acid] | < 100
O=C(O)c1ccc(CC(=O)c2ccc(O)c(F)c2F)cc1 [VI-5, 4-(2-(2,3-difluoro-4-hydroxyphenyl)-2-oxoethyl)benzoic acid] | < 100
O=C(O)c1ccc(CC(=O)c2ccc(O)cc2Cl)c(F)c1 [VI-6, 4-(2-(2-chloro-4-hydroxyphenyl)-2-oxoethyl)-3-fluorobenzoic acid] | < 100
O=C(O)c1ccc(CC(=O)c2cc(F)c(O)cc2F)c(F)c1 [VI-7, 4-(2-(2,5-difluoro-4-hydroxyphenyl)-2-oxoethyl)-3-fluorobenzoic acid] | 100 to 1000

Same assay, conditions: GSNOR; read-out: IC50

Compound | IC50 [nM]
O=C(O)c1ccc(CC(=O)c2ccc(O)cc2F)c(F)c1 [VI-2, 3-fluoro-4-(2-(2-fluoro-4-hydroxyphenyl)-2-oxoethyl)benzoic acid] | < 100
